Results reported in PubChem BioAssay AID1745844 (Carcinogenic Potency Database (CPDB), 2022).
Values joined by “and” are separate entries in the source; they are usually repeats but may differ in a detail not shown here. Equal entries are not always repeated. Active and inactive are the calls of the source. The rule behind the calls is not given here.

System: rodent lifetime carcinogenesis bioassay, tumor incidence TD50
Assay: carcinogenic potency in animals, long-term in vivo studies, CPDB compilation (AID 1745844)

## CC/C(=C(/CC)c1ccc(O)cc1)c1ccc(O)cc1
mouse, strain (C57BL/6 x BALB/c)F1, females, in feed, site: cervix, lesion: squamous-cell carcinoma, dosed 148 weeks, study length 161 weeks
  TD50: 1.98 mg/kg/day
mouse, strain (C57BL/6 x BALB/c)F1, females, in feed, site: mammary gland, lesion: adenocarcinoma, type B, dosed 148 weeks, study length 161 weeks
  carcinogen call: positive
mouse, strain (C57BL/6 x BALB/c)F1, females, in feed, site: pituitary gland, lesion: adenocarcinoma, dosed 148 weeks, study length 161 weeks
  TD50: 2.01 mg/kg/day
mouse, strain (C57BL/6 x BALB/c)F1, females, in feed, site: pituitary gland, lesion: adenoma, dosed 148 weeks, study length 161 weeks
  TD50: 0.0387 mg/kg/day
mouse, strain (C57BL/6 x BALB/c)F1, males, in feed, site: pituitary gland, lesion: adenoma, dosed 150 weeks, study length 169 weeks
  TD50: 0.0722 mg/kg/day
mouse, strain (C57BL/6 x BALB/c)F1, males, in feed, site: testis, lesion: interstitial-cell tumor, dosed 150 weeks, study length 169 weeks
  TD50: 0.0408 mg/kg/day
mouse, strain BALB/cStCrlfC3Hf/Nctr, females, in feed, site: cervix, lesion: adenoacanthoma, dosed 132 weeks, study length 133 weeks
  TD50: 1.28 mg/kg/day
mouse, strain BALB/cStCrlfC3Hf/Nctr, females, in feed, site: cervix, lesion: squamous-cell carcinoma, dosed 132 weeks, study length 133 weeks
  TD50: 0.311 mg/kg/day
mouse, strain BALB/cStCrlfC3Hf/Nctr, females, in feed, site: mammary gland, lesion: adenoacanthoma, dosed 132 weeks, study length 133 weeks
  TD50: 1.88 mg/kg/day
mouse, strain BALB/cStCrlfC3Hf/Nctr, females, in feed, site: mammary gland, lesion: adenocarcinoma, type B, dosed 132 weeks, study length 133 weeks
  TD50: 0.476 mg/kg/day
mouse, strain BALB/cStCrlfC3Hf/Nctr, females, in feed, site: ovary, lesion: granulosa-cell tumor, dosed 132 weeks, study length 133 weeks
  TD50: 0.166 mg/kg/day
mouse, strain BALB/cStCrlfC3Hf/Nctr, females, in feed, site: pituitary gland, lesion: adenocarcinoma, dosed 132 weeks, study length 133 weeks
  TD50: 5.1 mg/kg/day
mouse, strain BALB/cStCrlfC3Hf/Nctr, females, in feed, site: pituitary gland, lesion: adenoma, dosed 132 weeks, study length 133 weeks
  TD50: 0.2 mg/kg/day
mouse, strain BALB/cStCrlfC3Hf/Nctr, females, in feed, site: uterus, lesion: adenocarcinoma, dosed 132 weeks, study length 133 weeks
  TD50: 5.32 mg/kg/day
mouse, strain BALB/cStCrlfC3Hf/Nctr, females, in feed, site: vagina, lesion: squamous-cell carcinoma, dosed 132 weeks, study length 133 weeks
  TD50: 1.31 mg/kg/day
mouse, strain BALB/cStCrlfC3Hf/Nctr, males, in feed, site: pituitary gland, lesion: adenoma, dosed 121 weeks, study length 126 weeks
  TD50: 0.171 mg/kg/day
mouse, strain BALB/cStCrlfC3Hf/Nctr, males, in feed, site: testis, lesion: interstitial-cell tumor, dosed 121 weeks, study length 126 weeks
  TD50: 0.0215 mg/kg/day
mouse, strain C3H (MTV+), females, in feed, site: mammary gland, lesion: adenocarcinoma, dosed 104 weeks, study length 104 weeks
  TD50: 0.026 mg/kg/day
mouse, strain C3H (MTV+), females, in feed, site: mammary gland, lesion: carcinoma, dosed 85 weeks, study length 85 weeks
  TD50: 0.0292 mg/kg/day
mouse, strain C3H/AnCum, males, in feed, site: mammary gland, lesion: carcinoma, dosed 104 weeks, study length 104 weeks
  TD50: 0.0359 mg/kg/day and 0.0421 mg/kg/day and 0.0789 mg/kg/day
mouse, strain C3H/HeJ (MTV+), females, in feed, site: mammary gland, lesion: adenocarcinoma, dosed 52 weeks, study length 52 weeks
  TD50: 0.0825 mg/kg/day
mouse, strain C3H/HeJ (MTV+), females, in feed, site: mammary gland, lesion: adenocarcinoma, dosed 104 weeks, study length 104 weeks
  TD50: 14.2 mg/kg/day
mouse, strain C3H/HeJ (MTV+), females, in feed, site: ovary, lesion: tubular adenoma, dosed 78 weeks, study length 78 weeks
  TD50: 0.0222 mg/kg/day
mouse, strain C3H/HeN-MTV-/Nctr (MTV-), females, in feed, site: all sites, lesion: mesothelioma, dosed 112 weeks, study length 112 weeks
  TD50: 0.928 mg/kg/day
mouse, strain C3H/HeN-MTV-/Nctr (MTV-), females, in feed, site: all sites, lesion: mesothelioma, dosed 123 weeks, study length 123 weeks
  TD50: 0.487 mg/kg/day
mouse, strain C3H/HeN-MTV-/Nctr (MTV-), females, in feed, site: all sites, lesion: mesothelioma, dosed 125 weeks, study length 125 weeks
  TD50: 0.52 mg/kg/day
mouse, strain C3H/HeN-MTV-/Nctr (MTV-), females, in feed, site: cervix uteri, lesion: adenocarcinoma, dosed 112 weeks, study length 112 weeks
  TD50: 2.47 mg/kg/day
mouse, strain C3H/HeN-MTV-/Nctr (MTV-), females, in feed, site: cervix uteri, lesion: adenocarcinoma, dosed 123 weeks, study length 123 weeks
  TD50: 1.66 mg/kg/day
mouse, strain C3H/HeN-MTV-/Nctr (MTV-), females, in feed, site: cervix uteri, lesion: adenocarcinoma, dosed 125 weeks, study length 125 weeks
  TD50: 1.17 mg/kg/day
mouse, strain C3H/HeN-MTV-/Nctr (MTV-), females, in feed, site: mammary gland, lesion: adenocarcinoma, type A, dosed 107 weeks, study length 107 weeks
  TD50: 2.63 mg/kg/day
mouse, strain C3H/HeN-MTV-/Nctr (MTV-), females, in feed, site: mammary gland, lesion: adenocarcinoma, type A, dosed 123 weeks, study length 123 weeks
  TD50: 4.39 mg/kg/day
mouse, strain C3H/HeN-MTV-/Nctr (MTV-), females, in feed, site: mammary gland, lesion: adenocarcinoma, type A, dosed 125 weeks, study length 125 weeks
  TD50: 2.1 mg/kg/day
mouse, strain C3H/HeN-MTV-/Nctr (MTV-), females, in feed, site: mammary gland, lesion: adenocarcinoma, type B, dosed 107 weeks, study length 107 weeks
  TD50: 0.0302 mg/kg/day
mouse, strain C3H/HeN-MTV-/Nctr (MTV-), females, in feed, site: mammary gland, lesion: adenocarcinoma, type B, dosed 112 weeks, study length 112 weeks
  TD50: 0.0434 mg/kg/day
mouse, strain C3H/HeN-MTV-/Nctr (MTV-), females, in feed, site: mammary gland, lesion: adenocarcinoma, type B, dosed 123 weeks, study length 123 weeks
  TD50: 0.118 mg/kg/day
mouse, strain C3H/HeN-MTV-/Nctr (MTV-), females, in feed, site: mammary gland, lesion: adenocarcinoma, type B, dosed 125 weeks, study length 125 weeks
  TD50: 0.0956 mg/kg/day
mouse, strain C3H/HeN-MTV-/Nctr (MTV-), females, in feed, site: mammary gland, lesion: several types, types named in the paper, dosed 107 weeks, study length 107 weeks
  TD50: 0.0247 mg/kg/day
mouse, strain C3H/HeN-MTV-/Nctr (MTV-), females, in feed, site: mammary gland, lesion: several types, types named in the paper, dosed 112 weeks, study length 112 weeks
  TD50: 0.0427 mg/kg/day
mouse, strain C3H/HeN-MTV-/Nctr (MTV-), females, in feed, site: mammary gland, lesion: several types, types named in the paper, dosed 123 weeks, study length 123 weeks
  TD50: 0.115 mg/kg/day
mouse, strain C3H/HeN-MTV-/Nctr (MTV-), females, in feed, site: mammary gland, lesion: several types, types named in the paper, dosed 125 weeks, study length 125 weeks
  TD50: 0.0872 mg/kg/day
mouse, strain C3H/HeN-MTV-/Nctr (MTV-), females, in feed, site: uterus, lesion: endometrial adenocarcinoma, dosed 112 weeks, study length 112 weeks
  TD50: 2.05 mg/kg/day
mouse, strain C3H/HeN-MTV-/Nctr (MTV-), females, in feed, site: uterus, lesion: endometrial adenocarcinoma, dosed 123 weeks, study length 123 weeks
  TD50: 1.87 mg/kg/day
mouse, strain C3H/HeN-MTV-/Nctr (MTV-), females, in feed, site: uterus, lesion: endometrial adenocarcinoma, dosed 125 weeks, study length 125 weeks
  TD50: 1.71 mg/kg/day
mouse, strain C3HeB/FeJ, females, in feed, site: mammary gland, lesion: adenocarcinoma, dosed 78 weeks, study length 78 weeks
  TD50: 0.295 mg/kg/day
mouse, strain C3HeB/FeJ, females, in feed, site: ovary, lesion: tubular adenoma, dosed 78 weeks, study length 78 weeks
  TD50: 0.329 mg/kg/day
mouse, strain C3HeB/FeJ, females, in feed, site: ovary, lesion: tubular adenoma, dosed 104 weeks, study length 104 weeks
  TD50: 0.597 mg/kg/day
mouse, strain C57BL/6, females, in feed, site: pituitary gland, lesion: adenoma, dosed 118 weeks, study length 143 weeks
  TD50: 0.0259 mg/kg/day
mouse, strain C57BL/6, females, in feed, site: thyroid gland, lesion: follicular-cell tumor, dosed 118 weeks, study length 143 weeks
  carcinogen call: positive
mouse, strain C57BL/6, males, in feed, site: pituitary gland, lesion: adenocarcinoma, dosed 125 weeks, study length 153 weeks
  TD50: 1.42 mg/kg/day
mouse, strain C57BL/6, males, in feed, site: pituitary gland, lesion: adenoma, dosed 125 weeks, study length 153 weeks
  TD50: 0.0176 mg/kg/day
mouse, strain C57BL/6, males, in feed, site: testis, lesion: interstitial-cell tumor, dosed 125 weeks, study length 153 weeks
  TD50: 0.257 mg/kg/day
mouse, strain C57BL/6, males, in feed, site: thyroid gland, lesion: follicular-cell tumor, dosed 125 weeks, study length 153 weeks
  TD50: 0.05 mg/kg/day
mouse, strain Monohybrid cross offspring of B6CF1 (C57BL/6 x BALB/c), females, in feed, site: cervix, lesion: squamous-cell carcinoma, dosed 144 weeks, study length 153 weeks
  TD50: 1.03 mg/kg/day
mouse, strain Monohybrid cross offspring of B6CF1 (C57BL/6 x BALB/c), females, in feed, site: ovary, lesion: granulosa-cell tumor, dosed 144 weeks, study length 153 weeks
  TD50: 1.74 mg/kg/day
mouse, strain Monohybrid cross offspring of B6CF1 (C57BL/6 x BALB/c), females, in feed, site: pituitary gland, lesion: adenocarcinoma, dosed 144 weeks, study length 153 weeks
  TD50: 17 mg/kg/day
mouse, strain Monohybrid cross offspring of B6CF1 (C57BL/6 x BALB/c), females, in feed, site: pituitary gland, lesion: adenoma, dosed 144 weeks, study length 153 weeks
  TD50: 0.0456 mg/kg/day
mouse, strain Monohybrid cross offspring of B6CF1 (C57BL/6 x BALB/c), females, in feed, site: thyroid gland, lesion: follicular-cell adenoma, dosed 144 weeks, study length 153 weeks
  TD50: 0.186 mg/kg/day
mouse, strain Monohybrid cross offspring of B6CF1 (C57BL/6 x BALB/c), females, in feed, site: uterus, lesion: mesothelioma, dosed 144 weeks, study length 153 weeks
  TD50: 1.72 mg/kg/day
mouse, strain Monohybrid cross offspring of B6CF1 (C57BL/6 x BALB/c), males, in feed, site: pituitary gland, lesion: adenocarcinoma, dosed 147 weeks, study length 158 weeks
  TD50: 4.36 mg/kg/day
mouse, strain Monohybrid cross offspring of B6CF1 (C57BL/6 x BALB/c), males, in feed, site: pituitary gland, lesion: adenoma, dosed 147 weeks, study length 158 weeks
  TD50: 0.0794 mg/kg/day
mouse, strain Monohybrid cross offspring of B6CF1 (C57BL/6 x BALB/c), males, in feed, site: testis, lesion: interstitial-cell tumor, dosed 147 weeks, study length 158 weeks
  TD50: 0.0661 mg/kg/day
rat, strain Charles River CD (Sprague-Dawley), females, in feed, site: liver, lesion: hepatoma, dosed 91 weeks, study length 104 weeks
  TD50: 0.13 mg/kg/day (inactive)
rat, strain Charles River CD (Sprague-Dawley), males, in feed, site: adrenal gland, lesion: cortical adenoma, dosed 66 weeks, study length 66 weeks
  TD50: 0.39 mg/kg/day
rat, strain Charles River CD (Sprague-Dawley), males, in feed, site: liver, lesion: carcinoma, dosed 66 weeks, study length 66 weeks
  TD50: 1.21 mg/kg/day
rat, strain Charles River CD (Sprague-Dawley), males, in feed, site: liver, lesion: nodular hyperplasia, dosed 66 weeks, study length 66 weeks
  TD50: 0.39 mg/kg/day
rat, strain Charles River CD (Sprague-Dawley), males, in feed, site: liver, lesion: one or several types, types not named, dosed 91 weeks, study length 104 weeks
  carcinogen call: negative (inactive)
rat, strain Charles River CD (Sprague-Dawley), males, in feed, site: pituitary gland, lesion: chromophobe adenoma, dosed 66 weeks, study length 66 weeks
  TD50: 0.114 mg/kg/day
rat, strain Sprague-Dawley, females, by gavage, site: liver, lesion: hepatocellular adenoma, dosed 52 weeks, study length 52 weeks
  TD50: 16.3 mg/kg/day
rat, strain Sprague-Dawley, females, by gavage, site: liver, lesion: hepatocellular carcinoma, dosed 52 weeks, study length 52 weeks
  TD50: 4.8 mg/kg/day
rat, strain Sprague-Dawley, females, by gavage, site: pituitary gland, lesion: adenoma, dosed 52 weeks, study length 52 weeks
  TD50: 7.68 mg/kg/day
